% of control and % of inhibition data for six molecules are collected here from ChEMBL document CHEMBL5465560, “Selectivity Literature for EUbOPEN Chemogenomic Library” (2024).

Test [1] deals with T1, Hormonally up-regulated neu tumor-associated kinase (Homo sapiens) (UniProt P57058).
T1 sequence (whole entry): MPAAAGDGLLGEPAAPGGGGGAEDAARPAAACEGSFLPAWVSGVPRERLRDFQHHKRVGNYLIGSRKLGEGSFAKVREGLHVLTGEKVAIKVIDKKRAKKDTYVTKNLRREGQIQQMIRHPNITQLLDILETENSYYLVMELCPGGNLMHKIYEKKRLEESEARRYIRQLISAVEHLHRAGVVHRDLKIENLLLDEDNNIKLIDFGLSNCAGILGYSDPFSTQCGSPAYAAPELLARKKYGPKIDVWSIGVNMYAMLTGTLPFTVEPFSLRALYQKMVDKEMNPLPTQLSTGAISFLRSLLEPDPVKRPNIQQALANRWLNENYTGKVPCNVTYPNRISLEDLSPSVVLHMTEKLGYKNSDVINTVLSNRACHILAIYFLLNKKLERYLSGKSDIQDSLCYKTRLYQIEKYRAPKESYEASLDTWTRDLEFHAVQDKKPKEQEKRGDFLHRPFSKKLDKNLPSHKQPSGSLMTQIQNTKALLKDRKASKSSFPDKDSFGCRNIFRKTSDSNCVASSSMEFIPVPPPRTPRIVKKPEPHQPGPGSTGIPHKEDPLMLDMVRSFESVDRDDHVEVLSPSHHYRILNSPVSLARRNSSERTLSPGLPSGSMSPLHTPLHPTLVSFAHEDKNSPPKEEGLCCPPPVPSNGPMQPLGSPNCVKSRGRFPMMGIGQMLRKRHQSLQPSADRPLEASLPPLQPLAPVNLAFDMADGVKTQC
The test is described as follows: Selectivity interaction (KinomeScan (DiscoverX)) EUB0000655a HUNK. Particulars: at 10 µM.

Test [2] deals with Serine/threonine-protein kinase MARK1 (Homo sapiens) (UniProt Q9P0L2). The test is described as follows: Selectivity interaction (Kinase panel (literature)) EUB0001199aCl MARK1. Particulars: at 1 µM.
The target in test [3] is Cyclin-dependent kinase 9 (Homo sapiens, UniProt P50750). The test is described as follows: Selectivity interaction (ActivX KiNativ screen (kinase selectivity in THP-1 cell lysates)) EUB0000639a CDK9. To be noted: lysate. In kind it is subcellular.
The target of test [4] is Serine/threonine-protein kinase MARK2 (Homo sapiens) (UniProt Q7KZI7). Nature of the test: Selectivity interaction (ActivX KiNativ screen (kinase selectivity in THP-1 cell lysates)) EUB0000639a MARK2. In kind it is subcellular. Particulars: lysate, at 0.01 µM.
Test [5] addresses Macrophage-stimulating protein receptor (Homo sapiens, UniProt Q04912). Nature of the test: Selectivity interaction (KinomeScan (DiscoverX)) EUB0001049a MST1R. To be noted: at 1 µM.
The target of test [6] is Interferon-induced, double-stranded RNA-activated protein kinase (Homo sapiens) (UniProt P19525). The test is described as follows: Selectivity interaction (KinomeScan (DiscoverX)) EUB0000695a EIF2AK2. Particulars: at 100 nM.
Test [7] addresses T2, Discoidin domain-containing receptor 2 (Homo sapiens) (UniProt Q16832).
T2 sequence (whole entry): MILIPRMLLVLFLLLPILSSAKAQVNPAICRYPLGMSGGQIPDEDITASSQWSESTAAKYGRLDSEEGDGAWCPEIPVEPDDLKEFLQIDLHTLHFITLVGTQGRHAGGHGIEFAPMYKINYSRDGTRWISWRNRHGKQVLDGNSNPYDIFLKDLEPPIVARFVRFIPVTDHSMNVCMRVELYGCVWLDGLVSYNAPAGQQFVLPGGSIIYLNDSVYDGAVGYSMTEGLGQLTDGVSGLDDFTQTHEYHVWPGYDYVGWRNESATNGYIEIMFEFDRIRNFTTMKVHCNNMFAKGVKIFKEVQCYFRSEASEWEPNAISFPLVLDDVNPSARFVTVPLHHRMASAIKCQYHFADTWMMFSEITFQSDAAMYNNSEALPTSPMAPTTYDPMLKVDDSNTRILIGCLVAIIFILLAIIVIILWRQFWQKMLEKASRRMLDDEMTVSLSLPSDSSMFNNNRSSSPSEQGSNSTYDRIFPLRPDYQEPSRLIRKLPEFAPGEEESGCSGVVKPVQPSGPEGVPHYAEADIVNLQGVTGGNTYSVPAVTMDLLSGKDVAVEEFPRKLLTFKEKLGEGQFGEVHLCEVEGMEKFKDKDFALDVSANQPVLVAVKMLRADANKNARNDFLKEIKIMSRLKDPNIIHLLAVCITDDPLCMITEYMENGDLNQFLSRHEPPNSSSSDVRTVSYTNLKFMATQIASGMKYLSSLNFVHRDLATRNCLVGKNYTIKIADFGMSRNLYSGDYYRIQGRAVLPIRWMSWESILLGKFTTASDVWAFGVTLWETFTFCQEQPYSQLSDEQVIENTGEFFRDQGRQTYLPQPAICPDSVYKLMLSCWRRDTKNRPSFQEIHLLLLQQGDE
Nature of the test: Selectivity interaction (KinomeScan (DiscoverX)) EUB0000618a DDR2. To be noted: at 10 µM.

In test [8] the target is T3, Tyrosine-protein kinase ITK/TSK (Homo sapiens) (UniProt Q08881).
T3 sequence (whole entry): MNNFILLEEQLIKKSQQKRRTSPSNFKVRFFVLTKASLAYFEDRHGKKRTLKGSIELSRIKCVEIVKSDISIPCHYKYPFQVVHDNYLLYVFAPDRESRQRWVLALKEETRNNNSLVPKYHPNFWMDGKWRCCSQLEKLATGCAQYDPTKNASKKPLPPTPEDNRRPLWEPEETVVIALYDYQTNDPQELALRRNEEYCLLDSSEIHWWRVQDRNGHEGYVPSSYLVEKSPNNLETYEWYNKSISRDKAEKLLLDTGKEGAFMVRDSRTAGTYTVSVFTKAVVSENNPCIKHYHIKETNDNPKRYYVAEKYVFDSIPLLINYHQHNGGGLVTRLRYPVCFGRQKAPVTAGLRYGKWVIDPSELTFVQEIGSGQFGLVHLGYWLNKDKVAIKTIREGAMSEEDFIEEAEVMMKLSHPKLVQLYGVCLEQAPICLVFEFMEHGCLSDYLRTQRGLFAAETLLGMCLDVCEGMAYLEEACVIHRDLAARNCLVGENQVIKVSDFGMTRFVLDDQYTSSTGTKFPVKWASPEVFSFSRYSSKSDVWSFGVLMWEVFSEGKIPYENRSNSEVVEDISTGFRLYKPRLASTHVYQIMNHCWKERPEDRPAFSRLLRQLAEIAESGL
The test is described as follows: Selectivity interaction (KinomeScan (DiscoverX)) EUB0000618a ITK. To be noted: at 10 µM.

Chain of Cyclin-dependent kinase 9 (P50750 whole entry): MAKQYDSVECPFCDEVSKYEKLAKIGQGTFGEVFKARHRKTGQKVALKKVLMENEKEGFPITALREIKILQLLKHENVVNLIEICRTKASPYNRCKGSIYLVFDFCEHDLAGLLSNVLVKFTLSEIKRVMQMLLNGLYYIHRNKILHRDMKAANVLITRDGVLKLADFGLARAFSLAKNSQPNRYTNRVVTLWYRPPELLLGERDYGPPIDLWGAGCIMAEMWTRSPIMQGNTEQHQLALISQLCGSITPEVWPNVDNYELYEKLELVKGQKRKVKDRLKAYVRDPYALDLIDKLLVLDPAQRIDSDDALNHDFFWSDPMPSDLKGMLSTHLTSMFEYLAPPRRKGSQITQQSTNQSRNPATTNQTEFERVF
Chain of Serine/threonine-protein kinase MARK1 (Homo sapiens) (Q9P0L2 whole entry, looked up): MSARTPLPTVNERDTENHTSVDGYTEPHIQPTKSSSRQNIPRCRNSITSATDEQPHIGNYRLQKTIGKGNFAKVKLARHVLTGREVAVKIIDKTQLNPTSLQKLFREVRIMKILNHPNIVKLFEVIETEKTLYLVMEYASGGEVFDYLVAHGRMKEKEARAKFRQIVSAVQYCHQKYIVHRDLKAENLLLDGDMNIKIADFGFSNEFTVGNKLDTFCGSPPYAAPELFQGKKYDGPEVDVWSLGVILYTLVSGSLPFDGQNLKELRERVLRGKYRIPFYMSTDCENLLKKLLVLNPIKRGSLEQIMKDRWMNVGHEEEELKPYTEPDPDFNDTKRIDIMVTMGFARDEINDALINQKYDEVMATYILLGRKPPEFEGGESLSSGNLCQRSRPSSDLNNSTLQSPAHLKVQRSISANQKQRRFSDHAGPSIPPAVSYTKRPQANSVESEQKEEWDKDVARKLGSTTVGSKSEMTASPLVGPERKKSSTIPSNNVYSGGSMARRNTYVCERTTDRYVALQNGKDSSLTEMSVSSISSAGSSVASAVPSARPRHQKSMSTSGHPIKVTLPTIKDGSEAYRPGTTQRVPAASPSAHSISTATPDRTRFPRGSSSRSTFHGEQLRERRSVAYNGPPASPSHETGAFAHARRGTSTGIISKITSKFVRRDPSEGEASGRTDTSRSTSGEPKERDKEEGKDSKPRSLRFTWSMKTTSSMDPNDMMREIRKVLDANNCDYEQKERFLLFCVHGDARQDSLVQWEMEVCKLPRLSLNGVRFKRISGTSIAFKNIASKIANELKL
Chain of Serine/threonine-protein kinase MARK2 (Homo sapiens) (Q7KZI7 whole entry): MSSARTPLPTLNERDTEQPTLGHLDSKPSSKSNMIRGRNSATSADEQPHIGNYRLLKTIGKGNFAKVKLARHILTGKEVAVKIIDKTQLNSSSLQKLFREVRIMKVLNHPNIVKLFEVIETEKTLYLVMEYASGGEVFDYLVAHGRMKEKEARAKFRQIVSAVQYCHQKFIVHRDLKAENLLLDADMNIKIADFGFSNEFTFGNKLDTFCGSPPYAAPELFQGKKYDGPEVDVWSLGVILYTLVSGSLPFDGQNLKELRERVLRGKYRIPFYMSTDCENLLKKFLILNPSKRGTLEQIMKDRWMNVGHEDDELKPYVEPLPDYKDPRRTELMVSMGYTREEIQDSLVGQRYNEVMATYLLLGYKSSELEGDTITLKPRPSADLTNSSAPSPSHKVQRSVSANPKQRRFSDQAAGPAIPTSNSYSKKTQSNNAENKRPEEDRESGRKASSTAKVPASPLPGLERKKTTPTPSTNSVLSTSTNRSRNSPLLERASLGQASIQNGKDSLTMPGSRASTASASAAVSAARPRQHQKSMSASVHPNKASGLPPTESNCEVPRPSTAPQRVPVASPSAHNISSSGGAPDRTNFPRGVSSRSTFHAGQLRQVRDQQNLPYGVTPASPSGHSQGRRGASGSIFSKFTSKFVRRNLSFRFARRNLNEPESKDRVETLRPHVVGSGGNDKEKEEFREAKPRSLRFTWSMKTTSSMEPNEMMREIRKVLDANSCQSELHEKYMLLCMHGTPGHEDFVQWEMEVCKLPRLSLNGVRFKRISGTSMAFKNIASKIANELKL
Chain of Interferon-induced, double-stranded RNA-activated protein kinase (Homo sapiens) (P19525 whole entry, the tested form may be a part): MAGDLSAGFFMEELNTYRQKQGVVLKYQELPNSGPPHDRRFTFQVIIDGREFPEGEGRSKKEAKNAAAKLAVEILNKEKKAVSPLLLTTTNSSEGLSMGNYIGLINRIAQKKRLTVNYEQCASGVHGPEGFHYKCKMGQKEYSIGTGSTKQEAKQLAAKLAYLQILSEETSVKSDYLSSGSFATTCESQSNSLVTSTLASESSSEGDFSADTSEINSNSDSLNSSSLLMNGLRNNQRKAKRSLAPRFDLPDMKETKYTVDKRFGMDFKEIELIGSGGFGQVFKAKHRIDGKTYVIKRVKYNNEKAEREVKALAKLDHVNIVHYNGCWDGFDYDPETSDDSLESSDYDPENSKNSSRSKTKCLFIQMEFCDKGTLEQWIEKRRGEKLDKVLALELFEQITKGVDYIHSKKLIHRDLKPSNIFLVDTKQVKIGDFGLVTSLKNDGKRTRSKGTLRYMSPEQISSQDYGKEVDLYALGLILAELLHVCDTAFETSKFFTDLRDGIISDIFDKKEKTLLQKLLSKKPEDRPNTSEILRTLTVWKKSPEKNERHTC
Chain of Macrophage-stimulating protein receptor (Q04912 25-304 limits assumed): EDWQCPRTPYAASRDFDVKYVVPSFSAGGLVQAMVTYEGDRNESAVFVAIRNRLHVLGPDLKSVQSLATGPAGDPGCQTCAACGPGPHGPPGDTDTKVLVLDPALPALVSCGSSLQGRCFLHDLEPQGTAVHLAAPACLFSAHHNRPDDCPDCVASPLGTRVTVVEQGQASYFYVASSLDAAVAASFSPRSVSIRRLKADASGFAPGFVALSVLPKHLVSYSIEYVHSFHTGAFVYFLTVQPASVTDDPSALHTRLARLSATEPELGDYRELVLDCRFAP
Chain of Macrophage-stimulating protein receptor (Q04912 310-1400 limits assumed): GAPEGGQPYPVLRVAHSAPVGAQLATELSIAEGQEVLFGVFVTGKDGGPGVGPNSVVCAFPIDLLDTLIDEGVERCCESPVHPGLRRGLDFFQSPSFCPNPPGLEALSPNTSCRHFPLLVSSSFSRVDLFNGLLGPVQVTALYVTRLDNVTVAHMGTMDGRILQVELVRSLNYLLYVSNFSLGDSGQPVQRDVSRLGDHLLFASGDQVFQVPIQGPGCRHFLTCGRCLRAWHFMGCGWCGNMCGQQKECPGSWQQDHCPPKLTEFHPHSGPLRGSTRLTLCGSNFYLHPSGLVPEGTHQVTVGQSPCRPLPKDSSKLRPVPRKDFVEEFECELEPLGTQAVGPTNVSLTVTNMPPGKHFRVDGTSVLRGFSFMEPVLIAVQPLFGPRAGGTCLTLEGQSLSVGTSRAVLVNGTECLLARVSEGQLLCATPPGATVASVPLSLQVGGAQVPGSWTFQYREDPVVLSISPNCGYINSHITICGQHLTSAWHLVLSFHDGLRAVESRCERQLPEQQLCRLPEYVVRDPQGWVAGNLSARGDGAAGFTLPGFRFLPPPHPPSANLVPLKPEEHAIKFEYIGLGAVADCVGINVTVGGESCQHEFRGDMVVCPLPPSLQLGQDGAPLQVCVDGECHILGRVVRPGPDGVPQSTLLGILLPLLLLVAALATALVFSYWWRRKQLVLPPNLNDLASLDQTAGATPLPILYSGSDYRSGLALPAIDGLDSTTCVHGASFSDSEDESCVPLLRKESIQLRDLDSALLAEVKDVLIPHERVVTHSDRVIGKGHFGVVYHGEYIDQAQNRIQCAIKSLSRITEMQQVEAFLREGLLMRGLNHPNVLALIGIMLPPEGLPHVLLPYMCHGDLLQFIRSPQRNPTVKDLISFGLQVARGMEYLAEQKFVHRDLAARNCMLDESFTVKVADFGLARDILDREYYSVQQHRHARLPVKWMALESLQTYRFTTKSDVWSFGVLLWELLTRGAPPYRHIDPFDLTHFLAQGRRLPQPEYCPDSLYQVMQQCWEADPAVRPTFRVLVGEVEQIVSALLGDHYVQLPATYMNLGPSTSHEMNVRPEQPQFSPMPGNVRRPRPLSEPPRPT

`CN(C)CCOc1ccc(-c2nc(-c3ccncc3)c(-c3ccc4c(c3)CC/C4=N\O)[nH]2)cc1`: the % of control in test [1] was determined as 84%.

`CN1Cc2nccc(-c3cn(C)nc3-c3ccc(F)cc3)c2C1=O`: the % of inhibition in test [2] is 8%.

In the case of `CC[C@@H]1[C@H](F)C(=O)N[C@@H]1COc1nccc2cc(C(N)=O)c(OC)cc12` [ZIMLOVISERTIB], the % of inhibition in test [3] (at 0.01 µM) is 16.2%; in test [3] (at 0.04 µM) it was 0.9%; in test [3] (at 0.2 µM) it was 2.5%; in test [3] (at 1 µM), -1%; in test [3] (at 5 µM), 33%; in test [4], 12.7%.

On to `COc1cc(Nc2nc(C)cc(-c3cnn4nc(OC)ccc34)n2)cc(C(F)(F)F)c1`, for which the % of control in test [5] came out at 94%.

In turn, `Cc1cc(F)c(C(=O)Nc2cccc(-c3nncn3C(C)C)n2)cc1-n1cnc(C2CC2)c1` registered a % of control in test [6] of 100%.

For `O[C@H]1CC[C@H](Nc2ncc3nc(Nc4c(F)cc(F)cc4F)n([C@H]4CCOC4)c3n2)CC1`, the values for the % of control in test [7] and in test [8] were 89% and 100%, respectively.
